{"source": "patent US8354570B2", "about": "“Disease resistant plants” (Enza Zaden Beheer B.V., priority 2005, dated 2013)", "key": {"[1]": {"test_system": "H. parasitica isolates Cala2 and Waco9", "assay": "Conidiophore counting on H. parasitica-inoculated Arabidopsis seedlings infiltrated with homoserine", "assay_type": "in vivo, Hyaloperonospora parasitica", "method": "The inoculated seedlings were infiltrated with dH2O, D-homoserine (5 mM) or L-homoserine (5 mM) at 3 days post inoculation with the pathogen.\n(§1) To test if the effect is specific for homoserine the stereo-isomer D-homoserine was tested. Whole seedlings were infiltrated with water, 5 mM D-homoserine and 5 mM L-homoserine. […] The infiltration was applied to two Arabidopsis accessions, Ler eds1-2 and Ws eds1-1, susceptible to Cala2 and Waco9, respectively. Conidiophore formation was determined as an indicator for H. parsitica susceptibility. Conidiophores were counted 5 days post inoculation with H. parasitica and 2 days post infiltration with water, D-homoserine or L-homoserine. (FIG. 6). […] This was further confirmed by studying pathogen growth in planta by trypan blue staining of Arabidopsis seedlings. Plants were inoculated with isolate Cala2. Two days later the plants were treated by infiltration with water, 5 mM D-homoserine, and 5 mM L-homoserine."}, "[2]": {"test_system": "H. parasitica isolate Cala2", "assay": "Microscopy of trypan blue stained seedlings: growth and development of H. parasitica in planta", "assay_type": "in vivo, Hyaloperonospora parasitica", "conditions": "for haustorial development: 5 mM infiltration, microscopy, 40x magnification, FIG. 7b", "method": "as §1\nAgain it is shown that increased levels of homoserine in planta lead to pathogen resistance."}, "[3]": {"conditions": "5 mM infiltration of whole Arabidopsis seedlings"}}, "note": "“Also recorded” adds a separate entry of the source.", "data": [{"smiles": "N[C@@H](CCO)C(=O)O", "note": "[L-homoserine]", "values": [{"measurement": "resistance / susceptibility to H. parasitica", "setting": "[1]; [3]", "value": "resistant; also recorded: resulted in resistance to H. parasitica"}, {"measurement": "conidiophore formation (number of conidiophores per seedling)", "setting": "[1]; 5 mM infiltration of whole seedlings, counted 5 days post inoculation, 2 days post infiltration, Ler eds1-2 (Cala2) and Ws eds1-1 (Waco9), FIG. 6", "value": "complete absence of conidiophore formation; also recorded: reduction of conidiophore formation"}, {"measurement": "pathogen growth in planta (trypan blue staining)", "setting": "[2]; 5 mM infiltration two days after inoculation with Cala2, scored 5 days post inoculation, FIG. 7", "value": "strongly reduced pathogen growth"}, {"measurement": "conidiophore formation (microscopy)", "setting": "[2]; 5 mM infiltration two days after inoculation with Cala2, scored 5 days post inoculation, Ler eds1-2 seedlings, trypan blue, FIG. 7", "value": "No conidiophore formation was detected"}, {"measurement": "haustorial development", "setting": "[2]", "value": "affected; also recorded: disturbed"}]}, {"smiles": "N[C@H](CCO)C(=O)O", "note": "[D-homoserine, reference compound]", "values": [{"measurement": "pathogen growth", "setting": "[1]; [3]", "value": "did not show a large reduction in pathogen growth"}, {"measurement": "resistance / susceptibility to H. parasitica", "setting": "[1]; [3]", "value": "susceptible to H. parasitica"}, {"measurement": "haustorial development", "setting": "[2]", "value": "not"}]}]}
